We go through ten compounds from PubChem BioAssay (NCI).

Some test systems named below: SNB-78 CNS; DLD-1 colon; M19-MEL melanoma; LXFL 529 NSCLC; DMS 273 small cell lung; DMS 114 small cell lung; HOP-18 NSCLC; P388 leukemia; P388/ADR leukemia; SN12K1 renal; RXF-631 renal.
Common to all, as to test: NCI tumour cell line growth inhibition, 48 h

Each structure is given as a SMILES string.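 Protocol summary: plate cells (96-well), add compound at 5 concentrations, incubate 48 h, interpolate endpoints linearly. The concentration for full growth arrest is given as TGI.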

As for `Cc1c[n+]2c3ccccc3c3ccccc3c2s1`, the TGI with SNB-78 CNS is greater than 29.5 µM; in the experiment with DLD-1 colon, greater than 44.5 µM; in the experiment on M19-MEL melanoma, 18.3 µM; in the experiment with LXFL 529 NSCLC, 21.6 µM; in the experiment on DMS 273 small cell lung it was 20.1 µM; in the experiment on DMS 114 small cell lung it was 16.1 µM. This compound registered a TGI in the experiment on HOP-18 NSCLC greater than 100 µM.
With `C=CCNC(=S)N1CC(C)C(=O)Nc2cc(Cl)ccc21` (configuration not stated), the TGI in the experiment with SNB-78 CNS, with DLD-1 colon, in the experiment on M19-MEL melanoma, with LXFL 529 NSCLC, in the experiment with DMS 273 small cell lung and in the experiment with DMS 114 small cell lung was greater than 100 µM each time. In the experiment with HOP-18 NSCLC, this compound showed a TGI greater than 100 µM.
`COc1cc(C2c3cc4c(cc3[C@@H](Nc3cccc(CO)c3)C3COC(=O)[C@H]23)OCO4)cc(OC)c1O` (some centres not stated): the TGI in the experiment with DLD-1 colon worked out at 4.56 µM; in the experiment with M19-MEL melanoma, 32.6 µM; with P388 leukemia it was 0.369 µM; with P388/ADR leukemia, 1.86 µM; in the experiment on SN12K1 renal, 5.53 µM; in the experiment with DMS 273 small cell lung it was 1.76 µM. Besides, the TGI in the experiment on DMS 114 small cell lung was 3.82 µM; in the experiment on HOP-18 NSCLC, 17.4 µM.
Turning to `COc1ccc(C2=NN(c3ccccc3)C[N+](c3ccc(C)cc3)=N2)cc1`, the TGI is greater than 100 µM with SNB-78 CNS; greater than 100 µM in the experiment with DLD-1 colon; greater than 100 µM with M19-MEL melanoma; 38.5 µM in the experiment with LXFL 529 NSCLC; greater than 10 µM in the experiment with DMS 273 small cell lung; 65.1 µM in the experiment with DMS 114 small cell lung.
With `Cc1[nH]c(=O)[nH]c(=O)c1/C=C/C(=O)O` (tested in a mixture with another compound), the TGI with SNB-78 CNS, with DLD-1 colon, in the experiment with M19-MEL melanoma, with P388 leukemia, in the experiment on P388/ADR leukemia and in the experiment on SN12K1 renal was greater than 625 µM each time. Further, the TGI with DMS 273 small cell lung, in the experiment on DMS 114 small cell lung and in the experiment on HOP-18 NSCLC was greater than 625 µM each time.
Take `COc1cc2c3cc1Oc1c(O)c(OC)cc4c1C(Cc1ccc(O)c(c1)Oc1ccc(cc1)CC3N(C)CC2)N(C)CC4` (configuration not stated): the TGI worked out at 50.7 µM in the experiment on SNB-78 CNS; 43.8 µM in the experiment with M19-MEL melanoma; 17.1 µM in the experiment with LXFL 529 NSCLC; 30.6 µM with DMS 273 small cell lung; 44.8 µM with DMS 114 small cell lung; 45 µM in the experiment with HOP-18 NSCLC.
As for `O=C1C=CC2OC(c3ccccc3)C(O)C2O1` (configuration not stated), the TGI is 46.3 µM with SNB-78 CNS; 13.9 µM in the experiment with DLD-1 colon; 30.8 µM in the experiment on M19-MEL melanoma; 6.53 µM with P388 leukemia; 7.63 µM in the experiment with P388/ADR leukemia; 14.9 µM in the experiment with SN12K1 renal. Moreover, the values for the TGI in the experiment with DMS 273 small cell lung, in the experiment with DMS 114 small cell lung and in the experiment on HOP-18 NSCLC were 18.2 µM, 14.7 µM and 1.81 µM, respectively.
For `CCCCCCCCCCCC(=O)OC[C@H](C[As](=O)(O)O)OC(=O)CCCCCCCCCCC`, the TGI was 9.45 µM in the experiment with SNB-78 CNS; 26.7 µM in the experiment with DLD-1 colon; 22 µM in the experiment on M19-MEL melanoma; 14 µM in the experiment on LXFL 529 NSCLC; 15 µM in the experiment with DMS 273 small cell lung; 4.77 µM in the experiment on DMS 114 small cell lung. Further, in the experiment with HOP-18 NSCLC, the TGI worked out at 20.3 µM.
Regarding `N#CCc1c(-c2ccccc2)n(S(=O)(=O)c2ccccc2)c2ccccc12`, the TGI with DLD-1 colon, with M19-MEL melanoma, in the experiment with LXFL 529 NSCLC, in the experiment on DMS 273 small cell lung and with DMS 114 small cell lung was greater than 100 µM throughout.
`CCC(C)C(N)C(=O)NC(CC(N)=O)C(=O)NC(CC(C)C)C(=O)NC(CCCCN)C(=O)NC(C)C(=O)NC(CC(C)C)C(=O)NC(C)C(=O)NC(C)C(=O)NC(CC(C)C)C(=O)NC(C)C(=O)NC(CCCCN)C(=O)NC(CCCCN)C(=O)NC(C(=O)NC(CC(C)C)C(N)=O)C(C)CC` (configuration not stated): the TGI was 29.2 µM in the experiment on SNB-78 CNS; 25 µM in the experiment with DLD-1 colon; 19.5 µM in the experiment on RXF-631 renal; 25.9 µM in the experiment on M19-MEL melanoma; 28.7 µM with LXFL 529 NSCLC; 17 µM with DMS 273 small cell lung. The values for the TGI in the experiment with DMS 114 small cell lung and in the experiment on HOP-18 NSCLC were 28.1 µM and 13.5 µM, respectively.
